According to ChEMBL document CHEMBL5390201, “The Natural Alkaloid (-)-N-Hydroxyapiosporamide Suppresses Colorectal Tumor Progression as an NF-κB Pathway Inhibitor by Targeting the TAK1-TRAF6 Complex” (J Nat Prod, 2023):
Active and inactive are the calls of the source. The calls are words filed in the database; no cut-off is given here.

What was measured:
[1] = test system: Mus musculus; experiment: In vivo inhibition of NFkappaB activation in athymic BALB/c mouse xenografted with human HT-29 cells assessed as reduction in E-selectin gene expression in tumor at 5 to 15 mg/kg, ip administered every other day and measured after 14 days by qRT-PCR analysis; assay type: functional, organism-based; details: dose 5-15 mg/kg, time 14.0 day
[2] = test system: HT-29; experiment: Antitumor activity against human HT-29 cells xenografted in athymic nude BALB/c mouse assessed as induction of autophagy by measuring reduction in p62 expression in tumor at 15 mg/kg, ip administered every other day and measured after 14 days by immunohistochemistry analysis; assay type: functional, organism-based; details: time 14.0 day
[3] = Toxicity in athymic nude BALB/c mouse xenografted with human HT-29 cells assessed as pathological changes in liver at 5 to 15 mg/kg, ip administered every other day and measured after 14 days by hematoxylin and eosin staining-based microscopic analysis; assay type: organism-based; details: in vivo, 336 h, dose 5-15 mg/kg, time 14 day
[4] = test system: Cell membrane; experiment: Disruption of mitochondrial membrane potential in human HT-29 cells at 0.25 to 10 uM measured after 24 hrs by JC-1 staining based flow cytometry analysis; assay type: subcellular; details: dose 0.25-10 µM
[5] = test system: HT-29; experiment: Induction of cell cycle arrest in human HT-29 cells assessed as accumulation of cells at G0/G1 phase at 5 uM by RNase/PI staining based flow cytometry analysis (reference value: 50.73 %); assay type: functional
[6] = test system: HT-29; experiment: Induction of cell cycle arrest in human HT-29 cells assessed as accumulation of cells at S phase at 10 uM by RNase/PI staining based flow cytometry analysis (reference value: 39.34%); assay type: functional
[7] = test system: HT-29; experiment: Induction of cell cycle arrest in human HT-29 cells assessed as accumulation of cells at S phase at 1 uM by RNase/PI staining based flow cytometry analysis (reference value: 39.34%); assay type: functional
[8] = test system: HCT-116; experiment: Induction of cell cycle arrest in human HCT-116 cells assessed as decrease in Cdc2 protein expression upto 10 uM incubated for 24 hrs by Western blot analysis; assay type: functional, cell-based
[9] = test system: HT-29; experiment: Induction of cell cycle arrest in human HT-29 cells assessed as decrease in Cdc2 protein expression upto 10 uM incubated for 24 hrs by Western blot analysis; assay type: functional, cell-based
[10] = test system: HT-29; experiment: Induction of cell cycle arrest in human HT-29 cells assessed as decrease in P-cdc2 protein expression upto 10 uM incubated for 24 hrs by Western blot analysis; assay type: functional, cell-based
[11] = test system: HCT-116; experiment: Induction of apoptosis in human HCT-116 cells assessed as viable cells at 1 uM incubated for 24 hrs by Annexin V-FITC/PI staining based flow cytometric analysis (reference value: 88.8%); assay type: functional; details: read-out: Activity
[12] = test system: HCT-116; experiment: Induction of apoptosis in human HCT-116 cells assessed as necrotic cells at 1 uM incubated for 24 hrs by Annexin V-FITC/PI staining based flow cytometric analysis (reference value: 1.1 %); assay type: functional
[13] = test system: HT-29; experiment: Induction of apoptosis in human HT-29 cells assessed as necrotic cells at 10 uM incubated for 24 hrs by Annexin V-FITC/PI staining based flow cytometric analysis (reference value: 0.14 %); assay type: functional
[14] = test system: HCT-116; experiment: Induction of apoptosis in human HCT-116 cells assessed as inhibition of caspase 8 protein expression measured for 24 hrs by Western blot analysis; assay type: functional, cell-based; details: dose 0-10 µM
[15] = test system: HCT-116; experiment: Induction of apoptosis in human HCT-116 cells assessed as late apoptotic cells at 5 uM incubated for 24 hrs by Annexin V-FITC/PI staining based flow cytometric analysis (reference value: 16.9 %); assay type: functional
[16] = target: T1, Nuclear factor NF-kappa-B complex (Homo sapiens) (UniProt Q00653+P19838+Q04206); experiment: Inhibition of TNF-alpha induced NFkappaB activation in human HT-29 cells assessed as downregulation of MCP-1 gene expression pretreated for 24 hrs followed by TNFalpha stimulation and measured after 2 hrs by quantitative RT-PCR analysis; assay type: cell-based; details: dose 1-10 µM, time 26.0 hrs
T1 sequence (P19838 whole entry, looked up): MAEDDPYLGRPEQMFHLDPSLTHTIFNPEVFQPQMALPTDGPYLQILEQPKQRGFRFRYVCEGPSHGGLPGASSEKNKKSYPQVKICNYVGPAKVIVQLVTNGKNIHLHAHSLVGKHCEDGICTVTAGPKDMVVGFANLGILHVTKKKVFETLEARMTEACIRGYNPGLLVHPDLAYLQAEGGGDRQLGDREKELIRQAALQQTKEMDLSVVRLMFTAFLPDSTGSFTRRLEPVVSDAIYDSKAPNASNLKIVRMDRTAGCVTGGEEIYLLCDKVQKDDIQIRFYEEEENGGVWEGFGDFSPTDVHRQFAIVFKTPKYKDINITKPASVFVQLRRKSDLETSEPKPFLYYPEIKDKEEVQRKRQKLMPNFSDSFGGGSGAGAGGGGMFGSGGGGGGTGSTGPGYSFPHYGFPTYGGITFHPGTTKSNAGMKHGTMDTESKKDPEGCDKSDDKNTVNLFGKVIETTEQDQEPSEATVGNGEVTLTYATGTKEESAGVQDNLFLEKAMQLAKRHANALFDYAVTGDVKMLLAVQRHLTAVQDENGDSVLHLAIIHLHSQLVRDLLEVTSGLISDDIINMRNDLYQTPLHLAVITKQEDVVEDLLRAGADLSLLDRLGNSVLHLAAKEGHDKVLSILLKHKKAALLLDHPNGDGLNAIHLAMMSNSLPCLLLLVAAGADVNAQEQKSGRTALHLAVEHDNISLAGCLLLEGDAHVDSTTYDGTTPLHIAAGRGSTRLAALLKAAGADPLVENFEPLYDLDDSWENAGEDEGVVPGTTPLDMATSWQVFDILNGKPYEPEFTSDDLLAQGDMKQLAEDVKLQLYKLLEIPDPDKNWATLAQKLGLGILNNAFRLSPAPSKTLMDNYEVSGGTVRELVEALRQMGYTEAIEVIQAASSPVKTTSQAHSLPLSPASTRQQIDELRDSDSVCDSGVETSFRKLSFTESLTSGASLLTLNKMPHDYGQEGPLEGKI
T1 sequence (Q00653 whole entry, looked up): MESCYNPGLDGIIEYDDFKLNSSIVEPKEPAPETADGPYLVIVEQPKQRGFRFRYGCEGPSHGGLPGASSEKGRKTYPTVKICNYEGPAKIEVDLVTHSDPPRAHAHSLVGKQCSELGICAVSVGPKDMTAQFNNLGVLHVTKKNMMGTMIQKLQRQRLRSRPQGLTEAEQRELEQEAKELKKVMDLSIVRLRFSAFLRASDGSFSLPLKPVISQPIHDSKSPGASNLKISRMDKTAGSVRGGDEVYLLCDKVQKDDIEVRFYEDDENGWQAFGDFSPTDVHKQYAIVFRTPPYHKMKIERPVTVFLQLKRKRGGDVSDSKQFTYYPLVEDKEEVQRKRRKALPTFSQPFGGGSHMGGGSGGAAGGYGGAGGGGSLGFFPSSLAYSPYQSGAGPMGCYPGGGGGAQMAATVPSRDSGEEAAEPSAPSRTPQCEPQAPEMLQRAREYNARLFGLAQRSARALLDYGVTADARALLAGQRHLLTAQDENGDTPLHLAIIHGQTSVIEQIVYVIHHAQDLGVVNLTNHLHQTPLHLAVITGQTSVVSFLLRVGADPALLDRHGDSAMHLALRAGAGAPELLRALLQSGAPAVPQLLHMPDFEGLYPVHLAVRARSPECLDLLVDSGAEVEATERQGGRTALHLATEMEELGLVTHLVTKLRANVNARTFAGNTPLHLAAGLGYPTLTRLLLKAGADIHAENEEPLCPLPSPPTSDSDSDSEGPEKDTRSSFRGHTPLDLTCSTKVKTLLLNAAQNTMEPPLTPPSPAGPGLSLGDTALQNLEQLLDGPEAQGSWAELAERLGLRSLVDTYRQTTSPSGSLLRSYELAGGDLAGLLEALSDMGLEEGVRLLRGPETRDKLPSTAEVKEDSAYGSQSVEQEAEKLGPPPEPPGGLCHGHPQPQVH
T1 sequence (Q04206 whole entry, looked up): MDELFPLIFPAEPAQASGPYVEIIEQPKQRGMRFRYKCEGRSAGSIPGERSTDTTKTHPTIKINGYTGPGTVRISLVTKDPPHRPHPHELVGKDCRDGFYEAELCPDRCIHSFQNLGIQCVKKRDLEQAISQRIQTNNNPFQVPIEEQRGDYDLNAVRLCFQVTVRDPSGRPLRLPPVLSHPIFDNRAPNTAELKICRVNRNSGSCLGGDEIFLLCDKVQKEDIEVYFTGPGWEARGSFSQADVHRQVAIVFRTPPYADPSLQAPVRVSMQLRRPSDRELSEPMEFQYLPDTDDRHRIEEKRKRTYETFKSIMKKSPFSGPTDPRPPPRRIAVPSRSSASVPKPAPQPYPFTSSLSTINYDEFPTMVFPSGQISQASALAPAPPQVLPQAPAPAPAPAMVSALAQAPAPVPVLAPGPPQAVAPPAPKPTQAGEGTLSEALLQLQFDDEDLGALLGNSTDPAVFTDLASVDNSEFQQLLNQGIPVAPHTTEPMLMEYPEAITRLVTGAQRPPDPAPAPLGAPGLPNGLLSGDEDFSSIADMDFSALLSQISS

[17] = target: T1, Nuclear factor NF-kappa-B complex (Homo sapiens); experiment: Inhibition of TNF-alpha induced NFkappaB activation in human HT-29 cells assessed as inhibition of IkappaBalpha phosphorylation at 1 to 10 uM pretreated for 24 hrs followed by TNFalpha stimulation for 10 mins by Western blot analysis; assay type: cell-based; details: dose 1-10 µM, time 1450.0 min
[18] = target: T1, Nuclear factor NF-kappa-B complex (Homo sapiens); experiment: Inhibition of TNF-alpha induced NFkappaB activation in human HCT-116 cells assessed as inhibition of IL-8 production at 2 uM pretreated for 24 hrs followed by TNFalpha stimulation for 4 hrs by ELISA; assay type: cell-based; details: time 28.0 hrs
[19] = test system: RAW264.7; experiment: Inhibition of LPS-induced NFkappaB activation in mouse RAW264.7 cells assessed as inhibition of NO production preincubated for 24 hrs followed by LPS stimulation for 24 hrs; assay type: cell-based; details: dose 0.125-1 µM, time 48.0 hrs
[20] = test system: Mus musculus; experiment: In vivo inhibition of NFkappaB activation in LPS-induced BALB/c mouse model of endotoxin shock assessed as reduction in TNF-alpha level in serum at 5 mg/kg, ip pretreated for 4 hrs followed by LPS stimulation for 1 hr by ELISA; assay type: functional, organism-based; details: time 5.0 hrs
[21] = test system: Mus musculus; experiment: In vivo inhibition of NFkappaB activation in LPS-induced BALB/c mouse model of endotoxin shock assessed as reduction in IL6 level in serum at 5 mg/kg, ip pretreated for 4 hrs followed by LPS stimulation for 1 hr by ELISA; assay type: functional, organism-based; details: time 5.0 hrs
[22] = target: T1, Nuclear factor NF-kappa-B complex (Homo sapiens); experiment: Inhibition of NFkappaB activation in HEK293T cells transfected with HA-tagged TAB2 and kappaB luciferase/pTK-renilla reporters at 2 uM incubated for 6 hrs by Dual Luciferase Reporter Assay; assay type: cell-based; details: HEK-293T
[23] = target: T1, Nuclear factor NF-kappa-B complex (Homo sapiens); experiment: Inhibition of NFkappaB activation in HEK293T cells transfected with HA-tagged p65 and kappaB luciferase/pTK-renilla reporters at 2 uM incubated for 6 hrs by Dual Luciferase Reporter Assay; assay type: cell-based; details: HEK-293T
[24] = test system: HEK-293T; experiment: Inhibition of Flag-tagged TAK1/HA-tagged TRAF6 (unknown origin) protein-protein interaction transfected in HEK293T cells at 2 uM incubated for 6 hrs by co-immunoprecipitation method; assay type: cell-based; details: Homo sapiens
[25] = test system: HCT-116; experiment: Antitumor activity against human HCT-116 cells xenografted in athymic nude BALB/c mouse assessed as reduction in tumor weight at 5 to 15 mg/kg, ip administered every other day and measured every other day for 16 days; assay type: functional, organism-based; details: dose 5-15 mg/kg, time 16.0 day
[26] = test system: HT-29; experiment: Antitumor activity against human HT-29 cells xenografted in athymic nude BALB/c mouse assessed as induction of apoptosis by measuring increase in cleaved PARP expression in tumor at 15 mg/kg, ip administered every other day and measured after 14 days by immunohistochemistry analysis; assay type: functional, organism-based; details: time 14.0 day
[27] = Toxicity in athymic nude BALB/c mouse xenografted with human HCT-116 cells assessed as pathological changes in kidney at 5 to 15 mg/kg, ip administered every other day and measured after 14 days by hematoxylin and eosin staining-based microscopic analysis; assay type: organism-based; details: in vivo, 336 h, dose 5-15 mg/kg, time 14 day
[28] = Toxicity in athymic nude BALB/c mouse xenografted with human HT-29 cells assessed as pathological changes in lungs at 5 to 15 mg/kg, ip administered every other day and measured after 14 days by hematoxylin and eosin staining-based microscopic analysis; assay type: organism-based; details: in vivo, 336 h, dose 5-15 mg/kg, time 14 day
[29] = Plasma clearance in Sprague-Dawley rat at 10 mg/kg, ip measured for 24 hrs by HPLC-MS/MS analysis; assay type: ADME, organism-based
[30] = test system: HCT-116; experiment: Cytotoxicity against human HCT-116 cells assessed as inhibition of cell growth by SRB assay; assay type: functional, cell-based; details: time 24-48 hrs, TDE = time-dependent effect

**Q.** With C[C@@H]1CC[C@H]2[C@H](C(=O)c3c(O)c([C@@]4(O)CC[C@@H](O)[C@H]5O[C@H]54)cn(O)c3=O)[C@H](C)C=C[C@@H]2C1 as the compound, how does the inhibition [1] read?
**A.** Its inhibition is “Active”.

**Q.** What about the Activity [2] of the same compound?
**A.** The Activity was “Active”.

**Q.** And the Activity [3]?
**A.** Its Activity is “Non-Toxic”.

**Q.** What about the Activity [4] of the same compound?
**A.** Its Activity is “Active”.

**Q.** What about the Activity [5] of the same compound?
**A.** Its Activity is 67.37%.

**Q.** And the Activity [6]?
**A.** The Activity was 26.65%.

**Q.** And the Activity [7]?
**A.** The Activity was 23.75%.

**Q.** And the Activity [8]?
**A.** Its Activity is “Active”.

**Q.** What about the Activity [9] of the same compound?
**A.** The Activity was “Active”.

**Q.** What about the Activity [10] of the same compound?
**A.** The Activity was “Active”.

**Q.** What about the viability at 1 µM [11] of the same compound?
**A.** The viability at 1 µM was 32%.

**Q.** What about the Activity [12] of the same compound?
**A.** The Activity was 2.41%.

**Q.** And the Activity [13]?
**A.** Its Activity is 0.16%.

**Q.** And the Activity [14]?
**A.** The Activity was “Dose-Dependent Effect”.

**Q.** What about the Activity [15] of the same compound?
**A.** The Activity was 78.5%.

**Q.** And the inhibition [16]?
**A.** The inhibition was “Dose-Dependent Effect”.

**Q.** And the inhibition [17]?
**A.** Its inhibition is “Active”.

**Q.** And the inhibition [18]?
**A.** Its inhibition is “Active”.

**Q.** And the inhibition [19]?
**A.** The inhibition was “Dose-Dependent Effect”.

**Q.** What about the inhibition [20] of the same compound?
**A.** Its inhibition is “Active”.

**Q.** What about the inhibition [21] of the same compound?
**A.** Its inhibition is “Active”.

**Q.** What about the inhibition [22] of the same compound?
**A.** Its inhibition is “Active”.

**Q.** And the inhibition [23]?
**A.** Its inhibition is “Active”.

**Q.** What about the inhibition [24] of the same compound?
**A.** Its inhibition is “Active”.

**Q.** What about the Activity [25] of the same compound?
**A.** Its Activity is “Active”.

**Q.** What about the Activity [26] of the same compound?
**A.** Its Activity is “Active”.

**Q.** What about the Activity [27] of the same compound?
**A.** The Activity was “Non-Toxic”.

**Q.** And the Activity [28]?
**A.** Its Activity is “Non-Toxic”.

**Q.** What about the CL/F [29] of the same compound?
**A.** Its CL/F is 1.62 L/h/kg.

**Q.** What about the Activity [30] of the same compound?
**A.** The Activity was “Tde”.
